Results as given in patent US12171757B2, “Crenolanib for treating FLT3 mutated proliferative disorders” (Arog Pharmaceuticals, Inc., priority 2013, dated 2024).

What was measured:
[1] = tested on: relapsed/refractory AML patient with a de novo FLT3-ITD mutation and acquired FLT3-D835 TKD mutation; assay: Crenolanib besylate single agent therapy, Example 1 patient, clinical trial NCT01522469; type: in vivo, human
Description: (§1) Response criteria for AML clinical trials are adapted from the International Working Group for AML. See Cheson et al. Revised Recommendations of the International Working Group for Diagnosis, Standardization of Response Criteria, Treatment Outcomes, and Reporting Standards for Therapeutic Trials in Acute Myeloid Leukemia. J Clin Oncol. 2003; 21: 4642-4649. Responders are patients who obtain a Complete Response (CR), Complete Response with incomplete blood count recovery (CRi), or Partial Remission (PR). Briefly, criteria are as follows:
To overcome resistance to prior therapy, the patient was provided single agent oral crenolanib besylate on a clinical trial for relapsed or refractory AML patients with a FLT3-D835 TKD mutation (NCT01522469). […] The patient began treatment with 100 mg of oral crenolanib three times daily. […] The patient discontinued crenolanib therapy and underwent allogeneic stem cell transplant.

[2] = tested on: relapsed/refractory AML patient with a de novo FLT3-ITD mutation and acquired FLT3-D835 TKD mutation; assay: Crenolanib besylate single agent therapy, Example 2 patient, clinical trial NCT01522469; type: in vivo, human
Description: as §1
To overcome resistance to prior therapy with FLT3 tyrosine kinase inhibitor X, the patient was provided single agent oral crenolanib besylate on a clinical trial for relapsed or refractory AML patients with a FLT3-D835 mutation (NCT01522469). At baseline, the patient presented with 91% bone marrow blasts and 4800 units/uL of absolute circulating peripheral blood blasts. The patient began treatment with 80 mg of oral crenolanib three times daily. […] The patient discontinued crenolanib therapy and underwent allogeneic stem cell transplant.

[3] = tested on: heavily pretreated relapsed/refractory AML patient with acquired FLT3-ITD and FLT3-D835 TKD mutations; assay: Crenolanib besylate monotherapy, Example 3 patient, phase II clinical trial NCT01522469; type: in vivo, human
Description: as §1
A 59.2 kg person diagnosed with AML December 2011. Following initial diagnosis the patient was treated with 7+3 induction chemotherapy, followed by consolidation therapy with 1 cycle of high dose cytarabine. Five months later the patient underwent autologous stem cell transplantation with etoposide and busulfan conditioning. […] The patient was treated with 100 mg of crenolanib besylate three times daily. […] The patient discontinued crenolanib therapy to undergo allogeneic stem cell transplantation conditioning. The patient discontinued crenolanib therapy and underwent allogeneic stem cell transplant.

[4] = tested on: relapsed/refractory AML patient with an acquired FLT3-ITD mutation; assay: Crenolanib besylate monotherapy, Example 4 patient, phase II clinical trial NCT01522469; type: in vivo, human
Description: as §1
A 60.6 kg person diagnosed with FLT3-negative AML January 2012. […] The patient was then treated with 4 cycles of high dose cytarabine consolidation therapy. […] The patient was treated with 100 mg of crenolanib besylate three times daily. […] The patient discontinued crenolanib therapy and underwent allogeneic stem cell transplant.

[5] = tested on: refractory or relapsed acute leukemias; conditions: patients with refractory or relapsed acute leukemias; cited from earlier work
[6] = day 21 on study drug, 80 mg oral three times daily
[7] = day 15 on study drug, 100 mg three times daily
[8] = day 29 on study drug, 100 mg three times daily
[9] = day 33 on study drug, 100 mg three times daily
[10] = day 58 on study drug, 100 mg three times daily

Structure (SMILES): CC1(COc2ccc3c(c2)ncn3-c2ccc3cccc(N4CCC(N)CC4)c3n2)COC1 [Crenolanib, 4-Piperidinamine, 1-[2-[5-[(3-methyl-3-oxetanyl)methoxy]-1H-benzimidazol-1-yl]-8-quinolinyl]]
- Clinical response (bone marrow biopsy) ([1]; after 29 days of therapy, 100 mg, decreased to 80 mg, oral three times daily): complete remission (CR)
- Bone Marrow Blast (%) ([1]; day 0 on study drug (baseline)): 75%
- Bone Marrow Blast (%) ([1]; day 29 on study drug, 100 mg, decreased to 80 mg, oral three times daily): 0%
- Bone Marrow Blast (%) ([1]; day 57 on study drug, 100 mg, decreased to 80 mg, oral three times daily): 1%
- Days of therapy to complete clearance of malignant leukemic blasts in peripheral blood ([2]; 80 mg oral three times daily): 14 days
- Bone Marrow Blast (%) ([2]; day 0 on study drug (baseline)): 91%
- Absolute Peripheral Blast Count (units/uL) ([2]; day 1 on study drug (baseline value), 80 mg oral three times daily): 4800 units/uL
- Absolute Peripheral Blast Count (units/uL) ([2]; day 3 on study drug, 80 mg oral three times daily): 2747 units/uL
- Absolute Peripheral Blast Count (units/uL) ([2]; day 4 on study drug, 80 mg oral three times daily): 250 units/uL
- Absolute Peripheral Blast Count (units/uL) ([2]; day 7 on study drug, 80 mg oral three times daily): 49 units/uL
- Absolute Peripheral Blast Count (units/uL) ([2]; day 9 on study drug, 80 mg oral three times daily): 35 units/uL
- Absolute Peripheral Blast Count (units/uL) ([2]; day 14 on study drug, 80 mg oral three times daily): 0 units/uL
- Absolute Peripheral Blast Count (units/uL) [2, 6]: 0 units/uL
- Bone Marrow Blast (%) [2, 6]: 32%
- Absolute Peripheral Blast Count (units/uL) ([2]; day 28 on study drug, 80 mg oral three times daily): 0 units/uL
- Bone Marrow Blast (%) ([2]; day 35 on study drug, 80 mg oral three times daily): 2%
- Absolute Peripheral Blast Count (units/uL) ([2]; day 37 on study drug, 80 mg oral three times daily): 0 units/uL
- Absolute Peripheral Blast Count (units/uL) ([2]; day 38 on study drug, 80 mg oral three times daily): 0 units/uL
- Absolute Peripheral Blast Count (units/uL) ([2]; day 39 on study drug, 80 mg oral three times daily): 0 units/uL
- Absolute Peripheral Blast Count (units/uL) ([2]; day 40 on study drug, 80 mg oral three times daily): 0 units/uL
- Absolute Peripheral Blast Count (units/uL) ([2]; day 41 on study drug, 80 mg oral three times daily): 0 units/uL
- Absolute Peripheral Blast Count (units/uL) ([2]; day 42 on study drug, 80 mg oral three times daily): 0 units/uL
- Absolute Peripheral Blast Count (units/uL) ([2]; day 43 on study drug, 80 mg oral three times daily): 0 units/uL
- Absolute Peripheral Blast Count (units/uL) ([2]; day 45 on study drug, 80 mg oral three times daily): 0 units/uL
- Absolute Peripheral Blast Count (units/uL) ([2]; day 46 on study drug, 80 mg oral three times daily): 0 units/uL
- Absolute Peripheral Blast Count (units/uL) ([2]; day 47 on study drug, 80 mg oral three times daily): 0 units/uL
- Absolute Peripheral Blast Count (units/uL) ([2]; day 48 on study drug, 80 mg oral three times daily): 0 units/uL
- Absolute Peripheral Blast Count (units/uL) ([2]; day 49 on study drug, 80 mg oral three times daily): 0 units/uL
- Absolute Peripheral Blast Count (units/uL) ([2]; day 50 on study drug, 80 mg oral three times daily): 0 units/uL
- Absolute Peripheral Blast Count (units/uL) ([2]; day 51 on study drug, 80 mg oral three times daily): 0 units/uL
- Absolute Peripheral Blast Count (units/uL) ([2]; day 52 on study drug, 80 mg oral three times daily): 0 units/uL
- Bone Marrow Blast (%) ([2]; day 65 on study drug, 80 mg oral three times daily): 4-5%
- Absolute Peripheral Blast Count (units/uL) ([2]; day 69 on study drug, 80 mg oral three times daily): 0 units/uL
- Clinical response (bone marrow biopsy) ([2]; over the course of 65 days of therapy, 80 mg oral three times daily): complete remission with incomplete blood count recovery (CRi)
- Days of therapy to complete clearance of malignant leukemic blasts in peripheral blood ([3]; 100 mg three times daily): 15 days
- Clinical response (bone marrow biopsy) ([3]; after 33 days of therapy, 100 mg three times daily): complete remission with incomplete blood count recovery (CRi)
- Absolute Peripheral Blast Count (units/uL) ([3]; day 0 on study drug (baseline)): 196 units/uL
- Bone Marrow Blast (%) ([3]; day 0 on study drug (baseline)): 60-70%
- Absolute Peripheral Blast Count (units/uL) ([3]; day 14 on study drug, 100 mg three times daily): 14 units/uL
- Absolute Peripheral Blast Count (units/uL) [3, 7]: 0 units/uL
- Absolute Peripheral Blast Count (units/uL) ([3]; day 16 on study drug, 100 mg three times daily): 0 units/uL
- Absolute Peripheral Blast Count (units/uL) ([3]; day 17 on study drug, 100 mg three times daily): 0 units/uL
- Absolute Peripheral Blast Count (units/uL) ([3]; day 18 on study drug, 100 mg three times daily): 0 units/uL
- Bone Marrow Blast (%) ([3]; day 27 on study drug, 100 mg three times daily): 10%
- Absolute Peripheral Blast Count (units/uL) ([3]; day 28 on study drug, 100 mg three times daily): 0 units/uL
- Absolute Peripheral Blast Count (units/uL) [3, 8]: 0 units/uL
- Absolute Peripheral Blast Count (units/uL) ([3]; day 31 on study drug, 100 mg three times daily): 0 units/uL
- Absolute Peripheral Blast Count (units/uL) ([3]; day 32 on study drug, 100 mg three times daily): 0 units/uL
- Absolute Peripheral Blast Count (units/uL) [3, 9]: 0 units/uL
- Bone Marrow Blast (%) [3, 9]: 5%
- Absolute Peripheral Blast Count (units/uL) ([3]; day 39 on study drug, 100 mg three times daily): 0 units/uL
- Absolute Peripheral Blast Count (units/uL) ([3]; day 42 on study drug, 100 mg three times daily): 0 units/uL
- Absolute Peripheral Blast Count (units/uL) ([3]; day 44 on study drug, 100 mg three times daily): 0 units/uL
- Absolute Peripheral Blast Count (units/uL) ([3]; day 45 on study drug, 100 mg three times daily): 0 units/uL
- Absolute Peripheral Blast Count (units/uL) ([3]; day 46 on study drug, 100 mg three times daily): 0 units/uL
- Absolute Peripheral Blast Count (units/uL) ([3]; day 47 on study drug, 100 mg three times daily): 0 units/uL
- Absolute Peripheral Blast Count (units/uL) ([3]; day 48 on study drug, 100 mg three times daily): 0 units/uL
- Absolute Peripheral Blast Count (units/uL) ([3]; day 49 on study drug, 100 mg three times daily): 0 units/uL
- Absolute Peripheral Blast Count (units/uL) ([3]; day 50 on study drug, 100 mg three times daily): 0 units/uL
- Absolute Peripheral Blast Count (units/uL) ([3]; day 51 on study drug, 100 mg three times daily): 0 units/uL
- Absolute Peripheral Blast Count (units/uL) ([3]; day 52 on study drug, 100 mg three times daily): 0 units/uL
- Days of therapy to complete clearance of malignant leukemic blasts in peripheral blood ([4]; 100 mg three times daily): 15 days
- Clinical response (bone marrow biopsy) ([4]; after 29 days of therapy, 100 mg three times daily): complete remission with incomplete blood count recovery (CRi)
- Absolute Peripheral Blast Count (cells/uL) ([4]; day 0 on study drug (baseline)): 198 cells/uL
- Bone Marrow Blast (%) ([4]; day 0 on study drug (baseline)): 76%
- Absolute Peripheral Blast Count (cells/uL) ([4]; day 1 on study drug, 100 mg three times daily): 130 cells/uL
- Absolute Peripheral Blast Count (cells/uL) ([4]; day 8 on study drug, 100 mg three times daily): 19 cells/uL
- Absolute Peripheral Blast Count (cells/uL) [4, 7]: 0 cells/uL
- Absolute Peripheral Blast Count (cells/uL) ([4]; day 22 on study drug, 100 mg three times daily): 0 cells/uL
- Absolute Peripheral Blast Count (cells/uL) [4, 8]: 0 cells/uL
- Bone Marrow Blast (%) [4, 8]: 1%
- Absolute Peripheral Blast Count (cells/uL) [4, 10]: 0 cells/uL
- Bone Marrow Blast (%) [4, 10]: 1%

Structure (SMILES): CNC(=O)c1cc(Oc2ccc(NC(=O)Nc3ccc(Cl)c(C(F)(F)F)c3)cc2)ccn1 [sorafenib]
- Effect on bone marrow (BM) blasts [5]: only modest BM blast reductions
- Effect on peripheral blood (PB) blasts [5]: effective in clearing PB blasts
